Test results taken from EP1552850A2, “A combination of FBPase inhibitors and insulin sensitizers for the treatment of diabetes” (priority 1998, dated 2000).

What was measured:
Rat Hepatocytes = assay: Inhibition of Glucose Production and Elevation of Fructose-1,6-Bisphosphate Levels in Rat Hepatocytes; format: cell-based
Method: Hepatocytes were prepared from fed Sprague-Dawley rats (250-300 g) according to the procedure of Berry and Friend (Berry, M.N., Friend, D.S., 1969, J. Cell. Biol. 43, 506-520) as modified by Groen (Groen, A.K., Sips, H.J., Vervoom, R.C., Tager, J.M. , 1982, Eur. J. Biochem. 122, 87-93). Hepatocytes (75 mg wet weight/ml) were incubated in 1 ml Krebs-bicarbonate buffer containing 10 mM Lactate, 1 mM pyruvate, 1 mg/ml BSA, and test compound concentrations from 0 to 500 µM. Incubations were carried out in a 95% oxygen, 5% carbon dioxide atmosphere in closed, 50-ml Falcon tubes submerged in a rapidly shaking water bath (37°C). After 1 hour, an aliquot (0.25 ml) was removed, transferred to an Eppendorf tube and centrifuged. 50 µl of supernatant was then assayed for glucose content using a Sigma Glucose Oxidase kit as per the manufacturer's instructions.
Rat hepatocytes were isolated and incubated as described in Example C. Cell extracts, were analyzed for glucose content as described in Example C, and also for fructose 1,6-bisphosphate. Fructose 1,6-bisphosphate was assayed spectrophotometrically by coupling its enzymatic conversion to glycerol 3-phosphate to the oxidation of NADH, which was monitored at 340 nm. […] After a 30 minute preincubation at 37°C, 1 unit/mi of aldolase was added and the change in absorbance measured until a stable value was obtained. […]

[1] = Hepatic and plasma drug metabolite levels after Compound A p.o. in rats; format: in vivo, SpragueDawley rats; conditions: after Compound A 250 mg/kg by oral gavage; 8 hours sampling
Method: Compound A was administered by oral gavage to freely-feeding SpragueDawley rats (250-300g). The compound was prepared as a suspension in carboxymethylcellulose, and administered at a dose of 250 mg/kg. For the determination of liver metabolites, rats were serially sacrificed over the course of 24 hours after drug administration. Livers were freeze-clamped, homogenized in perchloric acid, neutralized, and then analyzed for Compound B by anion exchange HPLC.
For the determination of plasma metabolites, rats were instrumented with carotid catheters prior to oral dosing. Blood samples were withdrawn via the catheters at appropriate time points over the course of 8 hours post drug administration. Plasma was prepared from the blood samples by centrifugation, and plasma protein precipitated by the addition of methanol to 60%. Compound A metabolites were quantitated by reverse phase HPLC in the deproteinated plasma samples. A C18 column (1.4 cm X 250 mm) was equilibrated with 10 mM sodium phosphate, pH 5.5 and eluted with a gradient from this buffer to acetonitrile. Detection was at 254 nm.

[2] = Oral Bioavailability Determination (urinary excretion method); format: in vivo, Sprague Dawley rats; conditions: rat, oral 10-40 mg/kg vs intravenous parent, 24 hours urine
Method: The oral bioavailability of prodrugs and parent compounds was determined by the urinary excretion method in the rat. Prodrugs were dissolved in 10% ethanol/90% polyethylene glycol (mw 400) and administered by oral gavage at doses of 10 to 40 mg/kg parent compound equivalents to 6-hour fasted, Sprague Dawley rats (220-240 g). Parent compounds were typically dissolved in deionized water, neutralized with sodium hydroxide, and then administered orally at 10-40 mg/kg or intravenously at ~10 mg/kg. The rats were subsequently placed in metabolic cages and urine was collected for 24 hours. The quantity of parent compound excreted into urine was determined by HPLC analysis as described in Example F. Analysis was performed as described in Example F. For prodrugs, the percentage oral bioavailability was estimated by comparison of the recovery in urine of the parent compound generated from the prodrug administered orally, to that recovered in urine following intravenous administration of the corresponding parent compound. For parent compounds, the percentage oral bioavailability was estimated by comparison of the recovery in urine of the parent compound when administered orally to that recovered when administered intravenously.

ZDF rat [3] = assay: Combination treatment with Troglitazone and Compound G or Compound J in the ZDF rat - blood glucose; format: in vivo, Zucker Diabetic Fatty (ZDF) rat; conditions: for Blood Glucose, Day 0: baseline
Method: At 11 weeks of age, animals with blood glucose >500 mg/dl were selected and divided into 4 treatment groups (n=8/group). […] Blood glucose levels were measured in tail vein samples by means of a HemoCue glucose analyzer (HemoCue Inc., Mission Viejo, CA). Values are expressed as the mean plus or minus the standard error of the mean. Differences between groups were evaluated by analysis of variance with the Tukey-Kramer post hoc test.

ZDF rat [4] = conditions: in vivo
Method: At 11 weeks of age, animals with blood glucose >500 mg/dl were selected and divided into 4 treatment groups (n=8/group). […] Values are expressed as the mean plus or minus the standard error of the mean. Differences between groups were evaluated by analysis of variance with the Tukey-Kramer post hoc test.
Plasma was prepared by centrifugation and triglyceride levels then measured by means of a standard assay kit according to the instructions of the manufacturer (Sigma Chemical Company). Differences between groups were evaluated by analysis of variance with the Tukey-Kramer post hoc test. Results are considered significant with p<0.05.

type 2 diabetics = conditions: clinic; cited from earlier work
db/db Mouse = assay: Combination treatment with Troglitazone and Compound G in the db/db mouse - blood glucose; conditions: db/db mice, baseline
Method: Male db/db mice were purchased at 8 weeks of age from Jackson Labs (Bar Harbor, Maine). […] At 10 weeks of age, animals with blood glucose >400 mg/dl and <900 mg/dl were selected and divided into 4 treatment groups (n=5-6/group). […] Treatment was for 18 days. […] Blood glucose levels were measured in tail vein samples by means of a HemoCue glucose analyzer (HemoCue Inc., Mission Viejo, CA). Values are expressed as the mean plus or minus the standard error of the mean. Differences between groups were evaluated by analysis of variance with the Tukey-Kramer post hoc test. Results are considered significant with p<0.05.

[5] = Troglitazone-Compound J study, Troglitazone 0.2%, Compound J 0.4%

CCc1cc(F)c(N)c2nc(-c3ccc(P(=O)(O)O)o3)n(CC(C)C)c12 [Compound E]
intracellular fructose 1,6-bisphosphate (Rat Hepatocytes): dose-dependent elevation

NC(=O)c1ncn([C@@H]2O[C@H](CO)[C@@H](O)[C@H]2O)c1Br [5-bromo-1-βD-ribofuranosyl-imidazole-carboxamide]
detection in plasma [1]: detectable

CSc1nc(-c2ccc(P(=O)(O)O)o2)c(CC(C)C)s1 [Compound H, 2-Methylthio-5-isobutyl-4-[2-(5-phosphono)furanyl]thiazole]
Oral bioavailability, % [2]: 4%

CCOC(=O)[C@H](C)NP(=O)(N[C@@H](C)C(=O)OCC)c1ccc(-c2nc(N)sc2CC(C)C)o1 [Compound J, 2-Amino-5-isobutyl-4-{2-[5-(N,N'-bis((S)-1-ethoxycarbonyl)ethyl)phosphonamido]furanyl}thiazole]
Blood Glucose, Day 0 (ZDF rat [3]; [5]): 674 ± 20 mg/dL | Blood Glucose, Day 21 (ZDF rat [3]; [5]): 452 ± 40 mg/dL | blood glucose lowering, pilot studies (ZDF rat [3]; ZDF rat, food admixture dose finding): trend (not significant) towards more pronounced blood glucose lowering at 0.4% than at 0.2% | elevation of plasma triglycerides (ZDF rat [4]): ~2 fold

Cc1c(C)c2c(c(C)c1O)CCC(C)(COc1ccc(CC3SC(=O)NC3=O)cc1)O2 (stereo not shown) [Troglitazone]
Blood Glucose, Day 0 (ZDF rat [3]; Troglitazone-Compound G study, 0.2% food admixtures): 655 ± 33 mg/dL | hepatotoxicity, elevation of liver enzymes (type 2 diabetics): 1 % of patients | Blood Glucose, Day 0 (db/db Mouse): 710 ± 44 mg/dL
